# Target: T1, human HSP90α (Homo sapiens, UniProt P07900)
# T1 construct: host or cells: E. coli
# Experiment: radioligand filter binding test, competition with [3H]17AAG for HSP90
# Conditions: recombinant human HSP90α, [3H]17AAG 0.08 μM, 22° C., 30 min
# Excerpt: The binding of geldanamycin or 17-allylamino-17-demethoxygeldanamycin (17AAG) to HSP90 and competitive inhibition thereof can be utilised in order to determine the inhibitory activity of the compounds according to the invention (Carreras et al. 2003, Chiosis et al. 2002).
# In the specific case, a radioligand filter binding test is used. The radioligand used here is tritium-labelled 17-allylaminogeldanamycin, [3H]17AAG. This filter binding test allows a targeted search for inhibitors which interfere with the ATP binding site.
# Recombinant human HSP90α (E. coli expressed, 95% purity); [3H]17AAG (17-allylaminogeldanamycin, [allylamino-2,3-^3H. Specific activity: 1.11×10^12 Bq/mmol (Moravek, MT-1717);
# HEPES filter buffer (50 mM HEPES, pH 7.0, 5 mM MgCl2, BSA 0.01%) Multiscreen FB (1 μm) filter plate (Millipore, MAFBNOB 50).
# The 96-well microtitre filter plates are firstly irrigated and coated with 0.1% of polyethylenimine.
# The test is carried out under the following conditions: • Reaction temperature 22° C. • Reaction time: 30 min., shaking at 800 rpm • Test volume: 50 μl • Final Concentrations: • 50 mM HEPES HCl, pH 7.0, 5 mM MgCl2, 0.01% (w/v) BSA • HSP90:1.5 μg/assay • [3H]17AAG: 0.08 μM.
# At the end of the reaction, the supernatant in the filter plate is removed by suction with the aid of a vacuum manifold (Multiscreen Separation System, Millipore), and the filter is washed twice.
# The filter plates are then measured in a beta counter (Microbeta, Wallac) with scintillator (Microscint 20, Packard).
# “% of control” is determined from the “counts per minutes” values and the IC-50 value of a compound is calculated therefrom.
row,IC50 [µM],Structure (SMILES)
1,5.9,"COc1ccc(-c2c(C#N)c(N)nc3sc(C(N)=O)c(N)c23)cc1NC(=O)c1ccc(C(F)(F)F)cc1 [Compound A35, 2-aminocarbonyl-3,6-diamino-5-cyano-4-[4-methoxy-3-(4-trifluoromethylbenzoylamino)phenyl]thieno[2,3-b]pyridine]"
2,5.5,"COc1ccc(-c2c(C#N)c(N)nc3sc(C(N)=O)c(N)c23)cc1NC(=O)C(C)C [Compound A38, 2-aminocarbonyl-3,6-diamino-5-cyano-4-[4-methoxy-3-(prop-2-ylcarbonylamino)phenyl]thieno[2,3-b]pyridine]"
3,11,"COc1ccc(-c2c(C#N)c(N)nc3sc(C(N)=O)c(N)c23)cc1NC(=O)c1ccccc1C(F)(F)F [Compound A36, 2-aminocarbonyl-3,6-diamino-5-cyano-4-[4-methoxy-3-(2-trifluoromethylbenzoylamino)phenyl]thieno[2,3-b]pyridine]"
4,1.9,"COc1ccc(-c2c(C#N)c(N)nc3sc(C(N)=O)c(N)c23)cc1NC(=O)c1ccncc1 [Compound A37, 2-aminocarbonyl-3,6-diamino-5-cyano-4-[4-methoxy-3-(pyridin-4-ylcarbonylamino)phenyl]thieno[2,3-b]pyridine]"

# — patent publication US7989625B2, “Thienopyridines” (Merck Patent GmbH, priority 2005, dated 2011)
